Source: patent US9006241B2, “Pyrimidine derivatives” (Noviga Research AB, priority 2011, dated 2015)

Test system: CCRF-CEM cancer cells - leukemia
Test: Fluorometric Microculture Cytotoxicity Assay (FMCA), CCRF-CEM
Format: cell-based
Details: Homo sapiens, 72 h incubation
Description: The Fluorometric Microculture Cytotoxicity Assay, FMCA (Larsson, R., et al.; Anticancer Res, 1989, 9, 1111-1119), is a three day non-clonogenic microplate-based cell viability assay used for measurement of the cytotoxic and/or cytostatic effect of compounds in vitro (Lindhagen, E. et al.; Nat. Protoc., 2008, 3, 1364-1369). FMCA represents a valuable method to measure cytotoxicity in a number of cell types, both cell lines and primary cells from patients (Larsson, R., et al.; Int. J. Cancer, 1992, 50, 177-185; Fridborg, H., et al.; Eur. J. Cancer, 1999. 35, 424-432; Dhar, S., et al.; Br. J. Cancer, 1996, 74, 888-896).
FMCA is based on the principle that fluorescein diacetate (FDA) is converted to the fluorescent probe fluorescein by esterases in the plasma membranes of living cells. For experiments, 96 or 384-well microplates are prepared with compounds and stored at −70° C. until use. Cells are then seeded into the drug-prepared plates and placed in an incubator for 72 h. On the last day of incubation, the plates are washed and a buffer containing FDA is added and incubated with the cells for 45 minutes. Finally the fluorescence per well is measured in a fluorometer and a Survival Index % (SI) for each compound-treated well is calculated with the equation: Compound-treated cells minus blank divided by control cells minus blank. A high SI-value indicates a large percentage of living cells and vice versa.
In subsequent experiments, compounds were tested, along with a number of approved cancer drugs (dasatinib, pazopanib, sorafenib, and sunitinib) as described above. Initially, the acute lymphoblastic leukemia cell line CCRF-CEM was used throughout. In the assay plates, medium was added to six empty wells (blank wells) and wells were filled with PBS and cell suspension and served as control wells. SI-values were then calculated for each compound-treated well as described above. All experiments were conducted twice and a new batch of plates was prepared for each experiment.
For dose-response experiments, 384-well plates were prepared as follows:
Compounds of the invention as well comparative kinase inhibitors sorafenib sunitinib, dasatinib, pazopanib and a reference compound disclosed in WO 2009/071535 (compound #107) were diluted with PBS to a concentration ten-times higher than the desired starting concentration. Then, a Biomek 2000 liquid handling system was employed to serially dilute the compounds in a deep-well 384-well plate. From this plate, assay plates containing 5 μl compound per well were prepared with the Biomek 2000. Certain compounds precipitated when diluted with PBS, and these compounds were therefore prepared in a 96-well plate manually as described above using culture medium RPMI 1640 instead of PBS.
The compounds were also tested at five concentrations, with five times serial dilution on the following cell types: CCRF-CEM, hTERT-RPE1 (normal retinal epithelial cells), hRPTEpiC (normal renal cells), and peripheral blood mononuclear cells (PBMC). Each experiment was performed three times, except for PBMC and hRPTEpiC, which were performed twice. SI-values were calculated, graphs were plotted using GraphPadPrism 5.0 (GraphPad Software Inc. La Jolla, Calif.) and IC50-values for each cell type and compound were determined from the curves.

| SMILES | EC50 |
| --- | --- |
| COc1ccc2[nH]cc(CCNc3nccc(N(C)c4ccc5c(c4)cc(C)n5C)n3)c2c1 [Example 62, N^4-(1,2-dimethyl-1H-indol-5-yl)-N^2-[2-(5-methoxy-1H-indol-3-yl)ethyl]-N^4-methylpyrimidine-2,4-diamine] | 1000 to 10000 nM |
| COc1ccc2[nH]cc(CCNc3nccc(Nc4ccc5[nH]cnc5c4)n3)c2c1 [Example 18, N^4-(1H-benzo[d]imidazol-5-yl)-N^2-[2-(5-methoxy-1H-indol-3-yl)ethyl]pyrimidine-2,4-diamine] | 420 nM |
| COc1ccc2[nH]cc(CCNc3nc(Nc4ccc5c(c4)nc(C)n5C)cc(C(N)=O)n3)c2c1 [Example 86, 6-[(1,2-dimethylbenzimidazol-5-yl)amino]-2-[2-(5-methoxy-1H-indol-3-yl)ethylamino]pyrimidine-4-carboxamide] | < 1000 nM |
| c1ccc2c(CCNc3ccnc(Nc4ccc5cc[nH]c5c4)n3)c[nH]c2c1 [Example 24, N^4-[2-(1H-indol-3-yl)ethyl]-N^2-(1H-indol-6-yl)pyrimidine-2,4-diamine] | 1000 to 10000 nM |
| COc1ccc2[nH]cc(CCNc3nccc(Nc4ccc5[nH]c(C(=O)OCCO)cc5c4)n3)c2c1 [Example 17, 2-hydroxyethyl 5-{2-[2-(5-methoxy-1H-indol-3-yl)ethylamino]pyrimidin-4-ylamino}-1H-indole-2-carboxylate] | 1400 nM |
| COc1ccc2[nH]cc(CCN(C)c3nccc(Nc4ccc5[nH]c(CO)cc5c4)n3)c2c1 [Example 59, [5-(2-{[2-(5-methoxy-1H-indol-3-yl)ethyl][methyl]amino}pyrimidin-4-ylamino)-1H-indol-2-yl]methanol] | 1000 to 10000 nM |
| CCOc1ccc2[nH]cc(CCNc3nc(Nc4cccc5c4ccn5C)cc(C(N)=O)n3)c2c1 [Example 88, 2-[2-(5-ethoxy-1H-indol-3-yl)ethylamino]-6-[(1-methylindol-4-yl)amino]pyrimidine-4-carboxamide] | < 100 nM |
| COc1ccc2[nH]cc(CCNc3nccc(Nc4cccc5c4cc(C)n5C)n3)c2c1 [Example 81, N^4-(1,2-dimethylindol-4-yl)-N^2-[2-(5-methoxy-1H-indol-3-yl)ethyl]pyrimidine-2,4-diamine] | < 100 nM |
| CCOc1ccc2[nH]cc(CCNc3nccc(Nc4ccc5ccn(C)c5c4)n3)c2c1 [Example 76, N^2-[2-(5-ethoxy-1H-indol-3-yl)ethyl]-N^4-(1-methylindol-6-yl)pyrimidine-2,4-diamine] | < 1000 nM |
| COc1ccc2[nH]cc(CCNc3nccc(Nc4cccc5[nH]c(C)nc45)n3)c2c1 [Example 82, N^2-[2-(5-methoxy-1H-indol-3-yl)ethyl]-N^4-(2-methyl-1H-benzimidazol-4-yl)pyrimidine-2,4-diamine] | < 1000 nM |
| CCOc1ccc2[nH]cc(CCNc3nccc(Nc4ccc5cc(C)[nH]c5c4)n3)c2c1 [Example 74, N^2-[2-(5-ethoxy-1H-indol-3-yl)ethyl]-N^4-(2-methyl-1H-indol-6-yl)pyrimidine-2,4-diamine] | < 100 nM |
| COc1cc2[nH]cc(CCNc3nccc(Nc4ccc5[nH]c(C)cc5c4)n3)c2cc1OC [Example 50, N^2-[2-(5,6-dimethoxy-1H-indol-3-yl)ethyl]-N^4-(2-methyl-1H-indol-5-yl)pyrimidine-2,4-diamine] | 180 nM |
| CCOc1ccc2[nH]cc(CCNc3ncc(N)c(Nc4ccc5[nH]c(C)cc5c4)n3)c2c1 [Example 90, N^2-[2-(5-ethoxy-1H-indol-3-yl)ethyl]-N^4-(2-methyl-1H-indol-5-yl)pyrimidine-2,4,5-triamine] | < 100 nM |
| COc1ccc2[nH]cc(CCNc3nccc(Nc4cccc5c4ccn5C)n3)c2c1 [Example 54, N^2-[2-(5-methoxy-1H-indol-3-yl)ethyl]-N^4-(1-methyl-1H-indol-4-yl)pyrimidine-2,4-diamine] | 2.8 nM |
| CCOc1ccc2[nH]cc(CCNc3nccc(Nc4ccc5[nH]c(CO)cc5c4)n3)c2c1 [Example 72, [5-({2-[2-(5-ethoxy-1H-indol-3-yl)ethylamino]pyrimidin-4-yl}amino)-1H-indol-2-yl]methanol] | < 100 nM |
